Experimental data taken from patent US20100179646A1 (Rainbow Medical Ltd., priority 2009, published 2010).
In brackets after ≈: the same amount, converted by molar mass. Entries after “also recorded” stand apart in the source; their conditions may differ.

Experiments:
[1] = system: Enterococcus faecalis strain G; experiment: Determination of the MIC, 24 hour turbidity assay (optical density at 650 nm); type: cell-based
Method: Materials and Methods. • A Versamax™ temperature-controlled spectrophotometeric plate reader was used to continuously monitor growth of bacteria. This device accepts standard microtiter plates and maintains a constant temperature as desired. It therefore serves both as an incubator and as a plate reader that quantitatively monitors bacterial growth by following the development of turbidity in the wells. The device is supported by software which allows generation of individual growth curves for each well. • Enterococcus faecalis strain G was used. This bacterium was selected to establish a baseline to which other bacteria may be compared in the future. It is a stable strain and is streptomycin-resistant, which allows the use of this antibiotic agent in the growth media to reduce the incidence of accidental contamination with other bacterial strains. • Growth medium and conditions. The tests were conducted using Brain-Heart Infusion broth (BHI) as growth medium. This medium contained 1 mg/100 ml glucose which is approximately equivalent to serum concentration of glucose. A temperature of 37 C was maintained throughout the test. • Antibacterial agents. […] The Triclosan was initially dissolved in […] at a concentration of 10 mg/ml. […] Two types of non-woven fabric were used. The material was cut to standard size of 6 mm2. […] The growth medium contained 1 mg/100 mL glucose, which is approximately equivalent to the concentration that may be present in human blood. […] Bacteria were added at 10^6 CFU/well and the turbidity in the well was continuously monitored for up to 24 h to monitor the growth of the bacteria. Each group consisted of 8 wells with respective concentrations. Wells containing bacteria with no antibacterial agent served as a positive control. […] Bacteria were added to the same wells at time 0 and then at 24 and 48 h. Bacterial growth was monitored for 24 h after each addition. • (c) Determination of the MIC of Triclosan: The antibacterial effect of Triclosan was tested in 24 hour assays in order to define its MIC. Each well contained 200 μL of sterile growth medium. A range of Triclosan concentrations was added to respective wells. Bacteria were added at 10^6 CFU/well, and the turbidity in the well was continuously monitored for 24 h to monitor bacterial growth. Each group consisted of 8 wells with respective concentrations. Wells containing bacteria with no antibacterial agent served as a positive control. […] Each sample was attached to a special insert that allowed the material to be inserted into the wells of a microtiter plate without interfering with turbidity measurements in that well.

[2] = GOx activity assay (o-Dianisidine/peroxidase, optical density at 490 nm); type: biochemical; conditions: 0.03 mg/ml GOx
Method: An assay was set up that included: • 48 mM sodium acetate buffer, pH 5.1 • 0.16 mM o-Dianisidine • 1.61% (w/v) glucose • 2 units/ml peroxidase
The above components undergo the following reactions in combination with GOx:
β-D-glucose+O2+H2O→D-Gluconolactone+H2O2 Reaction 1
H2O2+o-Dianisidine(reduced)→o-Dianisidine(oxidized) Reaction 2
The optical density of the assay at 490 nm indicates the concentration of oxidized o-Dianisidine in the assay, oxidized o-Dianisidine being the final product of Reactions 1 and 2. […] The assay was set up in a 96-well plate, in accordance with enzyme-linked immunosorbent assay (ELISA) techniques, as are known in the art. An ELISA reader, as is known in the art, was used to determine the optical density of the assay.
An assay was set up, in accordance with the techniques described with reference to Experiment 1.
The above components, in combination with glucose, undergo Reactions 1 and 2 described with reference to Experiment 1 hereinabove.
Different concentrations of glucose were added to the assay, and the optical density of the assay after five minutes was measured with 490 nm light.
The above assay was set up with sodium acetate buffer of a pH that varied from 4 to 7.7.

[3] = system: Enterococcus faecalis strain G; conditions: GOx 6 μg/well (30 μg/mL) or higher, 72 hours, bacteria added at 0, 24 and 48 h
Method: Materials and Methods. • A Versamax™ temperature-controlled spectrophotometeric plate reader was used to continuously monitor growth of bacteria. This device accepts standard microtiter plates and maintains a constant temperature as desired. It therefore serves both as an incubator and as a plate reader that quantitatively monitors bacterial growth by following the development of turbidity in the wells. The device is supported by software which allows generation of individual growth curves for each well. • Enterococcus faecalis strain G was used. This bacterium was selected to establish a baseline to which other bacteria may be compared in the future. It is a stable strain and is streptomycin-resistant, which allows the use of this antibiotic agent in the growth media to reduce the incidence of accidental contamination with other bacterial strains. • Growth medium and conditions. The tests were conducted using Brain-Heart Infusion broth (BHI) as growth medium. This medium contained 1 mg/100 ml glucose which is approximately equivalent to serum concentration of glucose. […] Bacteria were added at 10^6 CFU/well and the turbidity in the well was continuously monitored for up to 24 h to monitor the growth of the bacteria. […] Bacteria were added at 10^6 CFU/well, and the turbidity in the well was continuously monitored for 24 h to monitor bacterial growth. […]

Compound | inhibition of bacterial growth ([1]; 4 μg/well (20 μg/mL), 24 h) | MIC ([1]; Enterococcus faecalis, 24 h, read-out: minimal inhibitory concentration (MIC)) [µg/mL] | inhibition of bacterial growth ([1]; Triclosan 5 μg/well (25 μg/mL) and above, 24 h) | influence of pH on GOx activity ([2]; 1.61% (w/v) glucose, sodium acetate buffer pH 4 to 7.7) | GOx activity at glucose levels of 80-120 mg/dL ([2]; pH 5.1, after five minutes, FIG. 6A) | minimal inhibitory concentration (MIC) ([1]; 24 hour assay, BHI broth with 1 mg/100 ml glucose, 37 C, 106 CFU/well) [µg/mL] | inhibition of bacterial growth ([1]; GOx 6 μg/well (30 μg/mL) or higher, 24 h) | inhibition of bacterial growth, sustained effect [3]
Oc1cc(Cl)ccc1Oc1ccc(Cl)cc1Cl [Triclosan, reference compound] | failed to inhibit | 25 (≈ 86.3 µM) | substantially inhibitory |  |  |  |  | 
glucose oxidase [GOx] | failed to inhibit |  |  | not substantially influenced | active; also recorded: approximately constant activity | 30 | substantially inhibitory; also recorded: zero bacterial growth | substantially complete inhibition
